# Patent publication US20250353873A1, “COMPOUNDS AND METHODS FOR MODULATING APOE EXPRESSION” (Ionis Pharmaceuticals, Inc., priority 2024, published 2025)
# Strand notation (5' to 3'): a small letter for the sugar, then the base; units joined by * are phosphorothioate-linked, units joined directly phosphodiester-linked; [ ] holds rarer units or linkages, { } end groups; capitals alone tell only the bases. [ms] = mesyl phosphoramidate linkage; e = 2'-O-(2-methoxyethyl) (MOE); [5mC] = 5-methylcytosine; d = 2'-deoxy (DNA)
# Legend:
# [1] = system: human APOE RNA; assay: Dose-dependent inhibition of human APOE RNA in HepG2 cells, electroporation, 24 hours (Example 6); assay type: cell-based
# Method in brief: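 IC50 derived from APOE RNA levels, given as percent of untreated control after GAPDH normalization (probe sets RTS3073 and RTS104). Oligonucleotides were delivered at multiple concentrations by electroporation into HepG2 cells seeded at 50,000 per well.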
# [2] = system: human APOE RNA; assay: Activity in APOE C57BL/6NTac-Apoeem7250 knock-in mice, single ICV bolus, 2 weeks (Example 9); assay type: in vivo; settings: single ICV bolus 300 μg
# Experimental: Modified oligonucleotides described above were tested in the APOE knock-in mouse model C57BL/6NTac-Apoeem7250_B-A02(APOE)Tac, a heterozygous APOE mouse model. APOE knock-in mice used in this study express the full-length human APOE gene knocked into the mouse locus. Humanization of APOE gene was done via CRISPR/Cas-9-mediated gene editing, allowing for generation of a model with constitutive expression of human APOE gene. Targeting strategy was based on NCBI transcripts NM_009696.4 (mouse) and NM_000041.4 (human). Mouse genomic sequence from exon 1 to exon 4 (including the 5′ and 3′ UTRs) was replaced with the human counterpart from 141 bp upstream of exon 1 to 28 bp downstream of exon 4. A plasmid allowing expression of Cas9 mRNA, specific gRNA, and the puromycin resistance cassette, and a plasmid containing the homology regions of the mouse APOE gene, and the replaced human region were co-transfected into the Taconic Biosciences C57BL/6N Tac ES cell line. Homologous recombination clones were isolated using positive puromycin selection, and humanized allele was obtained after Cas9-mediated gene editing. C57BL/6NTac-Apoeem7250_B-A02(APOE)Tac mice were used in the in vivo experiments described below.
# APOE C57BL/6NTac-Apoeem7250 knock-in mice were divided into groups of 3 mice each. Each mouse received a single ICV bolus of 300 μg of modified oligonucleotide. A group of 3 mice received a single ICV bolus with PBS as a negative control.
# Two weeks post treatment, mice were sacrificed and RNA was extracted from cortical brain tissue and spinal cord for quantitative real-time RT-PCR analysis of RNA expression of APOE using human primer probe set RTS3073 (described herein above). APOE RNA levels were normalized to mouse Ppia. Mouse Ppia was amplified using primer probe set m_cyclo24 (described herein above). Results are presented as percent human APOE RNA relative to the amount of human APOE RNA in PBS treated animals, (% control).
substance,measurement,setting,value
"1693105: 6-10-4 MOE gapmer CTTGGTGAATCTTTATTAAA, linkages sosssszzzssssszssss (e[5mC]*eTeT*eG*eG*eT*dG[ms]dA[ms]dA[ms]dT*d[5mC]*dT*dT*dT*dA[ms]dT*eT*eA*eA*eA) [compound 1693105]",IC50,[1],1100 nM
same,APOE RNA (% UTC),[1]; 5 nM,117 % UTC
same,APOE RNA (% UTC),[1]; 13 nM,104 % UTC
same,APOE RNA (% UTC),[1]; 33 nM,118 % UTC
same,APOE RNA (% UTC),[1]; 82 nM,91 % UTC
same,APOE RNA (% UTC),[1]; 205 nM,101 % UTC
same,APOE RNA (% UTC),[1]; 512 nM,59 % UTC
same,APOE RNA (% UTC),"[1]; 1,280 nM",43 % UTC
same,APOE RNA (% UTC),"[1]; 3,200 nM",23 % UTC
same,APOE RNA (% UTC),"[1]; 8,000 nM",21 % UTC
same,APOE RNA (% UTC),"[1]; 20,000 nM",6 % UTC
same,APOE RNA (% control) Cortex,[2]; Cortex,65 % control
same,APOE RNA (% control) Spinal Cord,[2]; Spinal Cord,54 % control
